Experimental data from patent US9321808B2, “Homo- and heterodimeric SMAC mimetic compounds as apoptosis inducers” (BioNTech AG, priority 2012, dated 2016).
Like-named read-outs stand apart in the source and are kept apart here.

Tests used:
[1] = tested on: MDA-MB-231 (breast epithelial adenocarcinoma); test: Standalone cytotoxicity, MTT assay, MDA-MB-231; assay type: cell-based, human; details: Homo sapiens, MDA-MB-231, 96 hours treatment, reported as activity range, read-out: MDA-MB-231 IC50 (μM ± standard Deviation)
Experimental: (§1) Human cell lines MDA-MB-231 (breast epithelial adenocarcinoma), HL-60 (promieloblast cells) and PC-3 (prostate adenocarcinoma cells) were purchased from Istituto Zooprofilattico di Brescia (www.bs.izs.it). Reagents for cell culture were purchased from Sigma, unless otherwise indicated. Cells were grown on Plastic Petri dishes (Falcon) in RPMI 1640 medium supplemented with 2 mM L-glutamine, Penicillin (100 U/mL)/Streptomicin (100 μg/mL), 10% Fetal Bovine Serum. A sub-cultivation ratio of 1:4 was used. Cells were maintained at 37° C. in an atmosphere of 95% air and 5% CO2.
(§2) Cells were seeded in 96-well flat bottom cell culture plates at a density of 5000 cells/well in 100 μL of culture medium. HL-60 cells were immediately stimulated with the indicated compounds for 96 hours in the incubator. MDA-MB-231 and PC-3 cells were allowed to adhere for 24 hours. prior to be exposed to the compounds for 96 hours in the incubator. Cells were exposed to the following concentrations of the compounds: 50 nM, 100 nM, 200 nM, 500 nM, 1 μM, 5 μM, 10 μM, 50 μM and 100 μM. Each point was done in triplicate. The cellular growth inhibitory effect of our compounds was evaluated using the MTT assay (Sigma). After 96 hours of treatment, 10 μL of MTT reagent solution (5 mg of MTT powder/mL diluted in Phosphate Buffer Salt saline solution) were added in each well and allowed to react for 3 hours in the incubator. After 3 hours cells were solubilized in Lysis Buffer (10% SDS/0.1% HCl in water, 100 μL for each well) for 24 hours at 37° C. Finally, the absorbance was measured at 570 nm using a multiplate reader. Absorbance values were collected and IC50 values were determined using GraphPad Prism5 software. The experiments were repeated twice.
(§3) After 96 hours of treatment, 10 μl of MTT reagent solution (5 mg of MTT powder/ml diluted in Phosphate Buffer Salt saline solution) were added in each well and allowed to react for 3 hours in the incubator. After 3 hours cells were solubilized in Lysis Buffer (10% SDS/0.1% HCl in water, 100 μl for each well) for 24 hours at 37° C. Finally, the absorbance was measured at 570 nm using a multiplate reader. Absorbance values were collected and IC50/IC80 values were determined using GraphPad Prism5 software.

[2] = target: T1, cIAP2-BIR3 (Homo sapiens, UniProt Q13489); test: Fluorescence polarization binding, cIAP2 BIR3
T1 construct: 6xHis (C); made in house; host or cells: Escherichia coli BL21(DE3)
T1 sequence (Q13489 237-349): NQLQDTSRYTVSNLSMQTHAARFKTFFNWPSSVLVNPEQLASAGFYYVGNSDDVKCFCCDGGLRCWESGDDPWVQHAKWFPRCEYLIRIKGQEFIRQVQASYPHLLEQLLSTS
Experimental: The plasmids were used to transform Escherichia coli strain BL21(DE3). The recombinant proteins were purified using Ni-NTA (His-trap FFcrude, Ge-Healthcare), followed by gel filtration (Superdex 200, Ge-Healthcare). The recombinant proteins were eluted in 20 mM Tris pH 8.0, 250 mM NaCl and 10 mM DTT. Aliquoted proteins were conserved at −80° C.
The fluorescently-labelled Smac peptide (AbuRPF-K(5-Fam)-N1-12, final concentration of 2 nM), and increasing concentrations of cIAP1- and cIAP2-BIR3 from 0 to 20 μM, were added to an assay buffer consisting of 100 mM potassium phosphate, pH 7.5, 100 μg/ml bovine γ-globulin, 0.02% sodium azide. […] All experiments were performed in black, flat-bottom 96-well microplates (Greiner bio-one). 4-substituted azabicyclo[5.3.0]alkane Smac-mimetics were evaluated for their ability to displace the fluorescent probe from recombinant protein. […] After 15 minutes mixing on a shaker, and 3 hours incubation at room temperature, fluorescent polarization was measured on the Ultra plate reader (Tecan).

[3] = tested on: PC-3 (prostate adenocarcinoma cells); test: Standalone cytotoxicity, MTT assay, PC-3; assay type: cell-based, human; details: Homo sapiens, 96 hours treatment, reported as activity range, read-out: PC-3 IC50 (μM ± standard Deviation)
Experimental: as §1
as §2, with “The experiments were repeated twice.” left out
as §3, with “After 3 hours cells were solubilized in Lysis Buffer (10% SDS/0.1% HCl in water, 100 μl for each well) for 24 hours at 37° C.” left out

[4] = tested on: HL-60 (promieloblast cells); test: Standalone cytotoxicity, MTT assay, HL-60; assay type: cell-based, human; details: Homo sapiens, HL-60, 96 hours treatment, reported as activity range, read-out: HL-60 IC50 (μM ± standard Deviation)
Experimental: as §1
as §2, with “The experiments were repeated twice.” left out
as §3, with “After 3 hours cells were solubilized in Lysis Buffer (10% SDS/0.1% HCl in water, 100 μl for each well) for 24 hours at 37° C.” left out

[5] = tested on: IGROV-1 human ovarian carcinoma xenografted s.c.; details: i.p., 5 mg/Kg, qdx5/wx3; IGROV-1 s.c.
Experimental: All experiments of antitumor activity were carried out using female athymic Swiss nude mice, 8-10 weeks-old (Charles River, Calco, Italy). Mice were maintained in laminar flow rooms keeping temperature and humidity constant. Mice had free access to food and water. Experiments were approved by the Ethics Committee for Animal Experimentation of the Istituto Nazionale Tumori of Milan according to institutional guidelines.
Chem. Soc. […] The drugs were delivered i.p. in a volume of 10 ml/Kg of body weight.
For subcutaneous (s.c.) growth, exponentially growing tumor cells (5×10^6 cells/mouse) were s.c. injected into the right flank of athymic nude mice. The tumor line was achieved by serial s.c. passages of fragments (about 2×2×6 mm) from regrowing tumors into healthy mice. Groups of five mice bearing bilateral s.c. tumors were employed. Tumor fragments were implanted on day 0 and tumor growth was followed by biweekly measurements of tumor diameters with a Vernier caliper. […] Treatment started three days after tumor implant, when tumors were just palpable. […] The toxicity of the drug treatment was determined as body weight loss and lethal toxicity. Deaths occurring in treated mice before the death of the first control mouse were ascribed to toxic effects. Student t test (two tailed) exact test was used for statistical comparison of tumor volumes in mice.

[6] = displacement of fluorescent probe (2 nM) from cIAP2 (25 nM), average of three independent measurements, read-out: cIAP2 IC50(av)

Row | Structure (SMILES) | IC50 [1] | IC50 [2] | other results
1 | CC[C@H](NC)C(=O)N[C@@H]1C(=O)N2[C@@H](CC[C@@H]1CNCc1ccccc1)CC[C@H]2C(=O)N[C@@H](c1ccccc1)c1cn(CCCCc2ccc(CCCCn3cc([C@@H](NC(=O)[C@@H]4CC[C@@H]5CC[C@H](CNCc6ccccc6)[C@H](NC(=O)[C@H](CC)NC)C(=O)N54)c4ccccc4)nn3)cc2)nn1 [Compound 29a] | < 1 µM | 12.1 nM | –
2 | CC[C@H](NC)C(=O)N[C@@H]1C(=O)N2[C@@H](CC[C@@H]1CO)CC[C@H]2C(=O)N[C@H](C(=O)NCCCCCCCCNC(=O)[C@@H](NC(=O)[C@@H]1CC[C@@H]2CC[C@H](CO)[C@H](NC(=O)[C@H](CC)NC)C(=O)N21)c1ccccc1)c1ccccc1 [Compound 30a] | < 1 µM | 1.8 nM | –
3 | CC[C@H](NC)C(=O)N[C@@H]1C(=O)N2[C@@H](CC[C@@H]1CO)CC[C@H]2C(=O)N[C@H](C(=O)NCCNC(=O)CCC#CC#CCCC(=O)NCCNC(=O)[C@@H](NC(=O)[C@@H]1CC[C@@H]2CC[C@H](CO)[C@H](NC(=O)[C@H](CC)NC)C(=O)N21)c1ccccc1)c1ccccc1 [Compound 30c] | 10 to 50 µM | – | –
4 | CC[C@H](NC)C(=O)N[C@@H]1C(=O)N2[C@@H](CC[C@@H]1CO)CC[C@H]2C(=O)N[C@H](C(=O)NCCCOCCOCCOCCCNC(=O)[C@@H](NC(=O)[C@@H]1CC[C@@H]2CC[C@H](CO)[C@H](NC(=O)[C@H](CC)NC)C(=O)N21)c1ccccc1)c1ccccc1 [Compound 30d] | 10 to 50 µM | – | IC50 [3]: > 50 µM; IC50 [4]: 10 to 50 µM; IC50 [2, 6]: 2.2 nM
5 | CC[C@H](NC)C(=O)N[C@@H]1C(=O)N2[C@@H](CC[C@@H]1Cn1cc(CCC(=O)NCCOCCOCCOCCNC(=O)[C@@H](NC(=O)[C@@H]3CC[C@@H]4CC[C@H](CO)[C@H](NC(=O)[C@H](CC)NC)C(=O)N43)c3ccccc3)nn1)CC[C@H]2C(=O)NC(c1ccccc1)c1ccccc1 [Compound 35a] | 1 to 10 µM | 0.4 nM | –
6 | CC[C@H](NC)C(=O)N[C@@H]1C(=O)N2[C@@H](CC[C@@H]1CNC(=O)COCC(=O)NCCOCCOCCOCCNC(=O)[C@@H](NC(=O)[C@@H]1CC[C@@H]3CC[C@H](CO)[C@H](NC(=O)[C@H](CC)NC)C(=O)N31)c1ccccc1)CC[C@H]2C(=O)NC(c1ccccc1)c1ccccc1 [Compound 36a] | 1 to 10 µM | – | IC50 [2, 6]: 0.2 nM
7 | CN[C@@H](C)C(=O)N[C@H]1CCCC[C@H]2CC[C@@H](C(=O)N[C@@H](c3ccccc3)c3cn(CCCCc4ccc(CCCCn5cc([C@@H](NC(=O)[C@@H]6CC[C@@H]7CCCC[C@H](NC(=O)[C@H](C)NC)C(=O)N76)c6ccccc6)nn5)cc4)nn3)N2C1=O [SM-164, reference compound] | – | – | Antitumor effect [5]: did not display any antitumor effect
